The values that follow come from patent US11602520B2, “c-Met regulatory composition and its method for treating liver disease” (priority 2020, dated 2023).

In one data set the test system is Notch-2. Nature of the data set: Gene expression analysis, real-time qPCR, Notch-2 RNA. It counts as cell-based, mice. The protocol: (§1) Normal hepatocytes of FL83B mice are divided into several groups (FL83B 1×10^4 cells/well), and treated with 10 mM acetaminophen for 24 hours respectively to make the hepatic cells in a damaged state, the acetaminophen is removed and then the hepatic cells are treated with different concentrations of the Antrodin A and/or the DMB for 24 hours. Then, the commercially available MTS cell viability analysis kit (CellTiter-Glo® One Solution Assay) is used to analyze the cell viability of each of the groups, the treatment condition of each of the groups of cells and the corresponding survival rate are shown in Table 4 to Table 6 below.
(§2) Real-time qPCR kits are used to analyze the gene expression in cells treated with different concentrations of the Antrodin A and the DMB in Example 2, and the results are shown in Tables 7 to 9 below.
A general note: In qPCR the cycle at which signal appears reflects the starting amount.

Data set [1] relates to Normal hepatocytes of FL83B mice treated with 10 mM acetaminophen (damaged hepatic cells). Nature of the data set: Cell viability analysis (2), hepatocytes damaged with 10 mM acetaminophen. It counts as cell-based. Conditions: after acetaminophen damage. The protocol:
as §1

The test system of another data set is c-Met. As to the kind of experiment: Gene expression analysis, real-time qPCR, c-Met. It counts as cell-based, mice. As for the experimental part:
as §1, §2

Data set [2] has as its system Normal hepatocytes of FL83B mice. As to the kind of experiment: Cell viability analysis (1), normal hepatocytes, MTS kit. It counts as cell-based. As to conditions: for Cell viability (%, relative to the blank group): 24 hours. The protocol: (§3) Normal hepatocytes of FL83B mice are divided into several groups (FL83B 1×10^4 cells/well), an amount of cells in each of the groups is treated under different conditions respectively and cultured for 24 hours. Then, the commercially available MTS cell viability analysis kit (CellTiter-Glo® One Solution Assay) is used to analyze the cell viability of each of the groups, the treatment condition of each of the groups of cells and the corresponding survival rate are shown in Table 1 to Table 3 below.
On the technique in general: Tetrazolium assays rely on reduction of a dye to a coloured formazan, in cell work by metabolically active cells.

Test in data set [3]: as above
It counts as cell-based, mice. As to conditions: mouse, FL83B normal hepatocytes, 24 hours, read-out: Cell viability (%, relative to the blank group). The protocol: as §3

On to `CC(C)=CCOc1ccc(C2=C(CC(C)C)C(=O)OC2=O)cc1` [Antrodin A], for which, in the data set with Notch-2, the “expression level of Notch in damaged hepatic cells (in words)” value was “increase the expression levels of c-Met and Notch”. Further, in data set [1], the “repair of damaged hepatic cells (in words)” value was “capable of repairing the damaged hepatic cells and increasing the activity of the hepatic cells”. In addition, the “Cell viability (%, relative to the blank group)” value in data set [1] (Antrodin A 17.5 ppm, 24 hours) was 101.9 ± 10.7%; in data set [1] (Antrodin A 35 ppm, 24 hours), 90.2 ± 9.9%; in data set [1] (Antrodin A 70 ppm, 24 hours), 102.7 ± 3.3%; in data set [2] (Antrodin A 8.75 ppm) it was 95.8 ± 4.8%; in data set [2] (Antrodin A 17.5 ppm), 107.1 ± 1.2%; in data set [2] (Antrodin A 35 ppm), 106.8 ± 6.5%. Further, the “Cell viability (%, relative to the blank group)” value in data set [2] (Antrodin A 70 ppm) turned out to be 108.5 ± 5.7%; in data set [2] (Antrodin A 140 ppm), 50.8 ± 4.4%. Moreover, in the data set with c-Met, the “expression level of c-Met in damaged hepatic cells (in words)” value was “increase the expression levels of c-Met and Notch”. Moreover, the “activity and survival rate of the normal hepatic cells (in words)” value in data set [2] (concentration of 8.75 to 70 ppm) is “capable of effectively maintaining and enhancing the activity and survival rate of the normal hepatic cells”. Moreover, the “toxicity to hepatic cells (in words)” value in data set [2] (concentration of 140 ppm) was “toxic to hepatic cells”.

Broadly, the viability is a read-out of living cells in per cent, often relative to untreated cells. `COc1cc(C)c(OC)c2c1OCO2` [DMB, 4,7-Dimethoxy-5-methyl-1,3-benzodioxole]: in the data set on Notch-2, the “expression level of Notch in damaged hepatic cells (in words)” value is “increase the expression levels of c-Met and Notch”. In addition, in data set [1] (Mus musculus, FL83B, DMB 2.5 ppm, 24 hours, read-out: Cell viability (%, relative to the blank group)), the viability at 2.5 ppm came out at 114 ± 3.9%. For the same compound, in data set [1] (Mus musculus, FL83B, DMB 5 ppm, 24 hours, read-out: Cell viability (%, relative to the blank group)), the viability at 5 ppm came to 104 ± 4.4%. Also, in data set [1] (Mus musculus, FL83B, DMB 10 ppm, 24 hours, read-out: Cell viability (%, relative to the blank group)), the viability at 10 ppm was 78.2 ± 8.8%. Besides, the viability at 17.5 ppm in data set [1] (Mus musculus, FL83B, DMB 17.5 ppm, 24 hours, read-out: Cell viability (%, relative to the blank group)) was 103 ± 7.7%. Moreover, the “repair of damaged hepatic cells (in words)” value in data set [1] is “capable of repairing the damaged hepatic cells and increasing the activity of the hepatic cells”. For the same compound, the “expression level of c-Met in damaged hepatic cells (in words)” value in the data set on c-Met was “increase the expression levels of c-Met and Notch”. The “toxicity to the normal hepatic cells (in words)” value in data set [2] (various concentrations) is “does not cause toxicity to the normal hepatic cells”. For the same compound, in data set [3] (DMB 1.25 ppm), the viability at 24 h, 1.25 ppm came to 112 ± 2.4%. Also, in data set [3] (DMB 2.5 ppm), the viability at 24 h, 2.5 ppm was found to be 114 ± 1.5%. Also, the viability at 24 h, 5 ppm in data set [3] (DMB 5 ppm) is 115 ± 2%. The viability at 24 h, 10 ppm in data set [3] (DMB 10 ppm) was 113 ± 3.4%. The viability at 24 h, 20 ppm in data set [3] (DMB 20 ppm) came to 111 ± 4%.
